Usually LOAEL stands for the lowest tested level that showed an adverse finding. The NOAEL is the highest dose or exposure tested at which no adverse effect was seen.

“And” between values parts separate entries of the source, which are not always exact repeats. Equal entries are not always repeated.

The source of these data is EPA's ToxValDB 9.5 (doi:10.2903/j.efsa.2018.5140).

Series [1] has as its system Rattus norvegicus.
The subject of series [2] is Colinus virginianus. The following applies: for LD50: acute, oral, mortality.
In series [3] the test system is Oncorhynchus mykiss. The following applies: acute; duration: 96 hours; mortality.
For series [4], the system named is Apis mellifera. The following applies: acute, mortality.
Series [5] has as its system Canidae. The following applies: oral, Dog Other, hematological.
The test system of series [6] is Pimephales promelas. The following applies: chronic/long-term; duration: 28 days.
Series [7] concerns Folsomia candida. The following applies: chronic/long-term; duration: 28 days; reproduction.
For series [8], the system named is Neomysis kadiakensis. The following applies: chronic/long-term; duration: 28 days; reproduction.
Series [9] concerns Aphidius rhopalosiphi. Description: LR50; higher = less toxic. The following applies: acute; mortality.

`COC(=O)[C@@]12Cc3cc(Cl)ccc3C1=NN(C(=O)Nc1ccc(OC(F)(F)F)cc1)CO2` returned an LC50 in series [1] (acute, M, mortality) of 52 mg/kg. Further, the LD50 in series [1] (acute, oral, F, mortality) was 39 mg/kg; in [2], 1750 mg/kg.
Take `COC(=O)N(C(=O)N1CO[C@@]2(C(=O)OC)Cc3cc(Cl)ccc3C2=N1)c1ccc(OC(F)(F)F)cc1` [Indoxacarb]: in series [3], the LC50 is above 0.17 µg/mL. Further, the LD50 in series [4] (dermal) amounted to 0.0682 µg/piece; in [4] (oral, unspecified), 0.232 µg/piece; in series [1] (acute, oral, mortality), 146 mg/kg-day; in series [2], 73.5 mg/kg-day. Besides, the LOAEL turned out to be 1.1 mg/kg-day in series [5] (chronic, duration: 1 years) and 1 mg/kg-day in series [5] (subchronic, duration: 90 days). The NOEC in series [6] worked out at 0.0675 mg/L; in series [7], 1 mg/kg; in [8], 0.0138 mg/L. The NOAEL in series [1] (chronic) is 0.6 mg/kg-day; in series [1] (chronic, duration: 2 years, hematological) it was 1.04 mg/kg-day; in series [1] (reproduction developmental, body weight), 0.5 mg/kg-day; in [1] (subchronic, duration: 90 days, oral, hematological), 0.68 mg/kg-day and 0.99 mg/kg-day; in series [1] (subchronic, oral, hematological), 0.76 mg/kg-day; in [2] (reproduction developmental), 56.8 mg/kg-day. The LR50 in [9] is 5.1 g/ha.
